In patent US10626106B2, “Substituted pyrrolidine amides I” (Gruenenthal GmbH, priority 2017, dated 2020):

What follows are molecules tested against T1, Human Glucocorticoid Receptor (hGR) (Homo sapiens, UniProt P04150) (assay: Human Glucocorticoid Receptor (hGR) Ligand-Binding Assay (competitive 3H-dexamethasone binding, IM9 cytosol)). Settings: compound at 1 μM; competition with 3H-dexamethasone; cytosol of IM9 cells; read-out: % inhibition hGR at 1 μM.
T1 construct: the resultant supernatant (=cytosol of IM9 cells) was centrifuged at 103,000 g for 60 minutes; host or cells: IM9 human lymphoblast cell line (cytosol fraction)
T1 sequence (P04150 1-777): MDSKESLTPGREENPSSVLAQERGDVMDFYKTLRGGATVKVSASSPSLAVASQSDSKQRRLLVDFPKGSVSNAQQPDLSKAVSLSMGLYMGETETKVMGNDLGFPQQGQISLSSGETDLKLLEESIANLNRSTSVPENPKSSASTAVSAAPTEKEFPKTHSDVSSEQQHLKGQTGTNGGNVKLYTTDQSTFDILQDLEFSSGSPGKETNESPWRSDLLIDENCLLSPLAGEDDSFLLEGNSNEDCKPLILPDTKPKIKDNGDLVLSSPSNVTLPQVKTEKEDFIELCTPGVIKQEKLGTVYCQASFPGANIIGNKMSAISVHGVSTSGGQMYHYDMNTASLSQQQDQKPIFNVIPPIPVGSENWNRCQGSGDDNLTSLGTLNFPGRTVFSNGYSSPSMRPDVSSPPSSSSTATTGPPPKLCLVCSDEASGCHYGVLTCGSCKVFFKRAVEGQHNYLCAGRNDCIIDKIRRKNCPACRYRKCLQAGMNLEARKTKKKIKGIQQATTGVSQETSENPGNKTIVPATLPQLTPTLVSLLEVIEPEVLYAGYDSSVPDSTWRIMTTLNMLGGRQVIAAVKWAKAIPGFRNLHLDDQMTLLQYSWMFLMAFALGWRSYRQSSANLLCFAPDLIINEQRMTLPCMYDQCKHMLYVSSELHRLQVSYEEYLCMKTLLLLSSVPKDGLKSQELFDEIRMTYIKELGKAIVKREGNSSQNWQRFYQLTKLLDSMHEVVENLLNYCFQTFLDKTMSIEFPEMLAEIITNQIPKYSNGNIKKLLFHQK
From the text: Human Glucocorticoid Receptor (hGR) Ligand-Binding Assay
Potential selective glucocorticoid receptor modulators of this intervention can be tested for their binding affinity at the glucocorticoid receptor using the binding assay described below.
Preferably, the glucocortitcoid receptor extracted from cytosol of IM9 cells is used for competitive radioligand binding assays to calculate the IC50 values and binding affinity (Ki value) of the compounds according to the present invention. Preferably, a fixed concentration of the radioligand 3H-dexamethasone and a range of concentrations of compounds according to the present invention (as unlabeled competitors of dexamethasone) are mixed with the extracted glucocorticoid receptor in order to measure the potency/affinity with which they compete for the binding of the radioligand. Preferably, by using competition curves the IC50 which is the concentration of competing ligand that displaces 50% of the specific binding of the radioligand is determined. Finally this IC50 value is converted to a Ki value.
The human lymphoblast cell line IM9 (ATCC, Bethesda, Md.) were cultivated in RPMI 1640 media containing 10% fetal bovine serum, penicillin (100 U/ml), streptomycin (100 μg/ml), and 2 mM L-glutamine at […] and 7% CO2 in a humidified incubator. Cells were centrifuged for 10 minutes at 1500 g and were washed in PBS and repelleted. Cell were then resuspended in homogenization buffer consisting of: 10 mM TES, 10 mM sodium molybdate, 1 mM EDTA, pH 7.4, 20 mM 2-mercaptoethanol, and 10% glycerol. Disruption of the cells was performed by nitrogen cavitation using 2×15 minutes at 600 to 750 psi nitrogen in a N2 cavitator at 0° C. The cell preparation was then centrifuged at 27,000 g for 15 minutes, and the resultant supernatant (=cytosol of IM9 cells) was centrifuged at 103,000 g for 60 minutes at 4° C. The amount of protein in the supernatant fraction was determined using a BCA assay kit and aliquots were snap frozen in a dry ice-acetone bath and stored at −70° C. Competitive binding assays were done in duplicate in homogenization buffer with a total volume of 200 μl. To this end, 1 mg of IM9 cytosol, 0.05 μCi (1.5 nM) of 3H-dexamethasone […] and compounds according to the present invention (=unlabeled competitors of dexamethasone; range of concentrations) were mixed. The reaction was stopped after incubation at 0° C. for 16 to 18 hours by the addition of 100 μl of a charcoal-dextran mixture (2% activated charcoal, 0.5% dextran in 10 mM Tris, 1 mM EDTA, pH 7.4). Another incubation step at 0° C. for 10 minutes followed before the samples were centrifuged for 5 minutes at 8200 g. 100 μl of the supernatant) was finally assayed for radioactivity by liquid scintillationspectrometry, and the IC50 values were determined graphically and were converted to Ki values.

`Cn1cc(-n2ncc3cc(N4C(=O)C[C@H](NC(=O)c5cocn5)[C@H]4c4ccccc4)ccc32)ccc1=O` [Example 50, N-[(2R,3S)-1-[1-(1-methyl-6-oxo-3-pyridyl)indazol-5-yl]-5-oxo-2-phenyl-pyrrolidin-3-yl]oxazole-4-carboxamide] and `Cn1ccc(C(=O)N[C@H]2CC(=O)N(c3ccc4c(cnn4-c4ccc(=O)n(C)c4)c3)[C@@H]2c2ccccc2)n1` [Example 45, 1-methyl-N-[(2R,3S)-1-[1-(1-methyl-6-oxo-3-pyridyl)indazol-5-yl]-5-oxo-2-phenyl-pyrrolidin-3-yl]pyrazole-3-carboxamide] fall in the same range of inhibition at 1 µM: 60 to 85% for the first, 60 to 85% for the second.

First: COc1cc([C@@H]2[C@@H](NC(=O)C(C)(F)F)CC(=O)N2c2ccc3c(cnn3-c3ccc(=O)n(C)c3)c2)ccc1F [Example 15, 2,2-difluoro-N-((2R,3S)-2-(4-fluoro-3-methoxyphenyl)-1-(1-(1-methyl-6-oxo-1,6-dihydropyridin-3-yl)-1H-indazol-5-yl)-5-oxopyrrolidin-3-yl)propanamide]
Second: Cn1cc(-n2ncc3cc(N4C(=O)C[C@H](NC(=O)C(C)(F)F)C4c4ccc5c(c4)OCCO5)ccc32)ccc1=O (stereo in doubt) [Example 3, trans-2,2-difluoro-N-(5-oxo-2-(2,3-dihydrobenzo[b][1,4]dioxin-6-yl)-1-(1-(1-methyl-6-oxo-1,6-dihydropyridin-3-yl)-1H-indazol-5-yl)pyrrolidin-3-yl)propanamide]
The inhibition at 1 µM of the first is lower: 60 to 85% for the first, over 85% for the second.

Compared with `COc1cc(Cn2ncc3cc(N4C(=O)C[C@H](NC(=O)C5CC5)C4c4ccccc4)ccc32)ccn1` (stereo in doubt) [Example 40, trans-N-(1-(1-((2-methoxypyridin-4-yl)methyl)-1H-indazol-5-yl)-5-oxo-2-phenylpyrrolidin-3-yl)cyclopropanecarboxamide], `COc1ccc(Cn2ncc3cc(N4C(=O)C[C@H](NC(=O)C(C)(F)F)[C@H]4c4ccccc4)ccc32)cn1` (relative stereo) [Example 33, trans-2,2-difluoro-N-(1-(1-((6-methoxypyridin-3-yl)methyl)-1H-indazol-5-yl)-5-oxo-2-phenylpyrrolidin-3-yl)propanamide] is higher in inhibition at 1 µM: 40 to 60% for the first, over 85% for the second.

Compared with `Cc1ccccc1[C@@H]1[C@@H](NC(=O)C(C)(F)F)CC(=O)N1c1ccc2c(cnn2-c2ccc(=O)n(C)c2)c1` [Example 43, 2,2-difluoro-N-((2R,3S)-1-(1-(1-methyl-6-oxo-1,6-dihydropyridin-3-yl)-1H-indazol-5-yl)-5-oxo-2-(o-tolyl)pyrrolidin-3-yl)propanamide], `Cn1cc(-n2ncc3cc(N4C(=O)C[C@H](NC(=O)C5CC5)[C@H]4c4ccccc4F)ccc32)ccc1=O` [Example 39, N-((2R,3S)-2-(2-fluorophenyl)-1-(1-(1-methyl-6-oxo-1,6-dihydropyridin-3-yl)-1H-indazol-5-yl)-5-oxopyrrolidin-3-yl)cyclopropanecarboxamide] is lower in inhibition at 1 µM: over 85% for the first, 60 to 85% for the second.

`Cn1ccc(Cn2ncc3cc(N4C(=O)C[C@H](NC(=O)C(C)(F)F)C4c4ccccc4)ccc32)cc1=O` (stereo in doubt) [Example 38, trans-2,2-difluoro-N-(1-(1-((1-methyl-2-oxo-1,2-dihydropyridin-4-yl)methyl)-1H-indazol-5-yl)-5-oxo-2-phenylpyrrolidin-3-yl)propanamide] and `Cn1ccc(Cn2ncc3cc(N4C(=O)C[C@H](NC(=O)C(C)(F)F)C4c4ccccc4)ccc32)n1` (stereo in doubt) [Example 32, trans-2,2-difluoro-N-(1-(1-((1-methyl-1H-pyrazol-3-yl)methyl)-1H-indazol-5-yl)-5-oxo-2-phenylpyrrolidin-3-yl)propanamide] fall in the same range of inhibition at 1 µM: 60 to 85% for the first, 60 to 85% for the second.

First: Cn1cc(-n2ncc3cc(N4C(=O)C[C@H](NC(=O)C5(C)CC5)[C@H]4c4ccccc4)ccc32)ccc1=O [Example 26, 1-methyl-N-((2R,3S)-1-(1-(1-methyl-6-oxo-1,6-dihydropyridin-3-yl)-1H-indazol-5-yl)-5-oxo-2-phenylpyrrolidin-3-yl)cyclopropane-1-carboxamide]
Second: Cc1cnc(C(=O)N[C@H]2CC(=O)N(c3ccc4c(cnn4-c4ccc(=O)n(C)c4)c3)[C@@H]2c2ccccc2)s1 (relative stereo) [Example 13, 5-methyl-N-(trans-1-(1-(1-methyl-6-oxo-1,6-dihydropyridin-3-yl)-1H-indazol-5-yl)-5-oxo-2-phenylpyrrolidin-3-yl)thiazole-2-carboxamide]
The inhibition at 1 µM of the first is lower: 60 to 85% for the first, over 85% for the second.

Same assay, conditions: read-out: % inhibition hGR at 1 μM

Compared with `Cc1ccc(-n2ncc3cc(N4C(=O)C[C@H](NC(=O)C(C)(F)F)C4c4ccccc4)ccc32)cn1` (stereo in doubt) [Example 24, trans-2,2-difluoro-N-(1-(1-(6-methylpyridin-3-yl)-1H-indazol-5-yl)-5-oxo-2-phenylpyrrolidin-3-yl)propanamide], `Cc1cc(-n2ncc3cc(N4C(=O)C[C@H](NC(=O)C(C)(F)F)C4c4ccccc4)ccc32)ccn1` (stereo in doubt) [Example 25, trans-2,2-difluoro-N-(1-(1-(2-methylpyridin-4-yl)-1H-indazol-5-yl)-5-oxo-2-phenylpyrrolidin-3-yl)propanamide] is higher in inhibition at 1 µM: 60 to 85% for the first, over 85% for the second.

`CC(F)(F)C(=O)N[C@H]1CC(=O)N(c2ccc3c(cnn3-c3cccnc3)c2)C1c1ccccc1` (stereo in doubt) [Example 7, trans-2,2-difluoro-N-(5-oxo-2-phenyl-1-(1-(pyridin-3-yl)-1H-indazol-5-yl)pyrrolidin-3-yl)propanamide] and `CC(F)(F)C(=O)N[C@H]1CC(=O)N(c2ccc3c(cnn3-c3ccncc3)c2)C1c1ccccc1` (stereo in doubt) [Example 23, trans-2,2-difluoro-N-(5-oxo-2-phenyl-1-(1-(pyridin-4-yl)-1H-indazol-5-yl)pyrrolidin-3-yl)propanamide] cannot be ordered by inhibition at 1 µM: over 85% for the first, over 85% for the second.

Molecule `Cn1cc(-n2ncc3cc(N4C(=O)C[C@H](NC(=O)C(C)(F)F)[C@H]4c4ccc(F)cc4)ccc32)ccc1=O` [Example 17, 2,2-difluoro-N-((2R,3S)-2-(4-fluorophenyl)-1-(1-(1-methyl-6-oxo-1,6-dihydropyridin-3-yl)-1H-indazol-5-yl)-5-oxopyrrolidin-3-yl)propanamide] has an inhibition at 1 µM of over 85%.
